# Test results: US20140135326A1, “METHOD OF TREATMENT OF AGGRESSION” (Supernus Pharmaceuticals, Inc., priority 2012, published 2014)
# Tests used:
# Type in all cases: in vivo, human
# [1] = test system: impulsive aggression in ADHD patients; assay: Phase IIb study, R-MOAS score change from baseline
# Method: (§1) A Phase IIb study was conducted for the treatment of impulsive aggression in Attention Deficit and Hyperactivity Disorder (ADHD) patients with a pharmaceutical preparation of molindone. The study was a multi-center randomized, double-blind, placebo controlled clinical trial in children 6 to 12 diagnosed with ADHD and characterized by impulsive aggression that is not controlled by optimal stimulant and psychosocial treatment. It was a dose finding study with the primary objective of identifying an effective dose range in children of different weight or age groups. The children were divided into two […] (i.e., less than 30 kg and greater than or equal to 30 kg). The low, medium, and high doses for the under 30 kg group were 12 mg, 24 mg, and 36 mg, respectively. Similarly, the low, medium, and high doses for the 30 kg and over group were 18 mg, 36 mg, and 54 mg, respectively. Three doses of molindone were studied with the primary endpoints of (a) effect in reducing impulsive aggression (measured with change in the score of the Retrospective-Modified Overt Aggression Scale “R-MOAS” at the end of the study from the baseline), and (b) rate of remission of aggression, after at least three weeks of treatment. Secondary objectives included safety and tolerability of molindone as well as the effect on the Clinical Global Impression and the Oppositional […] Disorder subscale score of the SNAP-IV Questionnaire and other endpoints [e.g., SNAP, clinical labs, AEs, etc.]. Patients who completed the study were offered the opportunity to continue into an open-label phase of six months duration.
# [2] = Phase IIb study, safety and tolerability; conditions: throughout the study, across all doses
# Method: A Phase IIb study was conducted for the treatment of impulsive aggression in Attention Deficit and Hyperactivity Disorder (ADHD) patients with a pharmaceutical preparation of molindone. The study was a multi-center randomized, double-blind, placebo controlled clinical trial in children 6 to 12 diagnosed with ADHD and characterized by impulsive aggression that is not controlled by optimal stimulant and psychosocial treatment. It was a dose finding study with the primary objective of identifying an effective dose range in children of different weight or age groups. The children were divided into two […] (i.e., less than 30 kg and greater than or equal to 30 kg). The low, medium, and high doses for the under 30 kg group were 12 mg, 24 mg, and 36 mg, respectively. Similarly, the low, medium, and high doses for the 30 kg and over group were 18 mg, 36 mg, and 54 mg, respectively. Three doses of molindone were studied with the primary endpoints of (a) effect in reducing impulsive aggression (measured with change in the score of the Retrospective-Modified Overt Aggression Scale “R-MOAS” at the end of the study from the baseline), and (b) rate of remission of aggression, after at least three weeks of treatment. Secondary objectives included safety and tolerability of molindone as well as the effect on the Clinical Global Impression and the Oppositional […] […]
# [3] = test system: impulsive aggression in ADHD patients; assay: Phase IIb study, rate of remission of aggression (R-MOAS ≦ 10); conditions: for Remission Rate at End of Study (Visit 10): R-MOAS ≦ 10, LOCF
# Method: as §1
smiles,measurement,setting,value
CCc1c(C)[nH]c2c1C(=O)C(CN1CCOCC1)CC2 (stereo not drawn) [molindone],efficacy across any of the measures,"[1]; 30 kg or more, high dose (54 mg)",did not show efficacy
same,"R-MOAS (LOCF) Change from Baseline, mean (SD)","[1]; <30 kg, high dose (36 mg)",−16.4 (36.90)
same,"R-MOAS (LOCF) End of treatment (visit 10), mean (SD)","[1]; <30 kg, high dose (36 mg)",32.2 (24.14)
same,"R-MOAS (LOCF) Change from Baseline, mean (SD)","[1]; <30 kg, low dose (12 mg)",−25.1 (23.00)
same,"R-MOAS (LOCF) End of treatment (visit 10), mean (SD)","[1]; <30 kg, low dose (12 mg)",34.2 (27.29)
same,"R-MOAS (LOCF) Change from Baseline, mean (SD)","[1]; <30 kg, medium dose (24 mg)",−30.7 (31.22)
same,"R-MOAS (LOCF) End of treatment (visit 10), mean (SD)","[1]; <30 kg, medium dose (24 mg)",38.5 (36.70)
same,statistical significance vs placebo on the R-MOAS endpoint,"[1]; patients under 30 kg, the studied doses (12, 24, 36 mg)",did not show statistical significance
same,"R-MOAS (LOCF) Change from Baseline, mean (SD)","[1]; ≧30 kg, high dose (54 mg)",−23.0 (27.55)
same,"R-MOAS (LOCF) End of treatment (visit 10), mean (SD)","[1]; ≧30 kg, high dose (54 mg)",28.8 (40.60)
same,"R-MOAS (LOCF) Change from Baseline, mean (SD)","[1]; ≧30 kg, low dose (18 mg)",−41.7(32.48)
same,"R-MOAS (LOCF) End of treatment (visit 10), mean (SD)","[1]; ≧30 kg, low dose (18 mg)",9.8 (13.01)
same,"R-MOAS (LOCF) Change from Baseline, mean (SD)","[1]; ≧30 kg, medium dose (36 mg)",−40.9(34.84)
same,"R-MOAS (LOCF) End of treatment (visit 10), mean (SD)","[1]; ≧30 kg, medium dose (36 mg)",13.5(15.71)
same,tolerability,[2],well tolerated
same,"Remission, Treatment vs Placebo Odds Ratio","[3]; <30 kg, high dose (36 mg)",0.62
same,"Remission, Treatment vs Placebo Odds Ratio","[3]; <30 kg, low dose (12 mg)",1.53
same,"Remission, Treatment vs Placebo Odds Ratio","[3]; <30 kg, medium dose (24 mg)",1.36
same,Remission Rate at End of Study (Visit 10),"[3]; <30 kg, high dose (36 mg)",3 (21.4) n(%)
same,Remission Rate at End of Study (Visit 10),"[3]; <30 kg, low dose (12 mg)",4 (33.3) n(%)
same,Remission Rate at End of Study (Visit 10),"[3]; <30 kg, medium dose (24 mg)",4 (26.7) n(%)
same,Remission Rate at End of Study (Visit 10),"[3]; ≧30 kg, high dose (54 mg)",7 (41.2) n(%)
same,Remission Rate at End of Study (Visit 10),"[3]; ≧30 kg, low dose (18 mg)",10 (66.7) n(%)
same,Remission Rate at End of Study (Visit 10),"[3]; ≧30 kg, medium dose (36 mg)",8 (53.3) n(%)
same,"Remission, Treatment vs Placebo Odds Ratio","[3]; ≧30 kg, high dose (54 mg)",4.07
same,"Remission, Treatment vs Placebo Odds Ratio","[3]; ≧30 kg, low dose (18 mg)",12.08
same,"Remission, Treatment vs Placebo Odds Ratio","[3]; ≧30 kg, medium dose (36 mg)",7.07
